Source: patent US12161669B2, “Compositions and methods for cell targeting therapies” (UMC UTRECHT HOLDING B.V., priority 2017, dated 2024)

Columns and labels:
Type in all cases: cell-based
CD277 [1] = test: dSTORM super-resolution imaging of CD277 clusters on HEK293FT cells; settings: 100 uM pamidronate vs medium, DBSCAN
Protocol: HEK293FT cells were plated in eight-well Lab-Tek chambers to adhere and treated with 100 uM pamidronate overnight. For super-resolution imaging, cells were labeled with AF647-CD277 at RT. After labeling, cells were washed with PBS and fixed with 4% PFA and 0.2% gluteraldehyde for 1-2 h. Prior to super-resolution imaging, 200 μL of fresh SRB (Super-resolution buffer: 50 mM Tris, 10 mM NaCl, 10% glucose, 168.8 U/mL glucose oxidase, 1404 U/mL catalase, 10 mM cysteamine hydrochloride, pH 8.0) was added to the well. dSTORM imaging was performed using an inverted microscope (IX71; Olympus America) equipped with an oil-immersion objective 1.45-NA total internal reflection fluorescence objective (U-APO 150×; Olympus America). […]
dSTORM images were analyzed and reconstructed with custom-built MATLAB functions as described previously (Smith et al 2010, Nat Methods: Huang et al 2011, Biomed Opt Express). […]
Finally, in order to understand whether the enhanced recruitment of low affinity CTE-C13 TCR in the synapse was a result of changes in CD277 clustering due to the PAM treatment, direct stochastic optical reconstruction microscopy (dSTORM), a localization-based super-resolution imaging technique that provides ˜20 nm resolution was performed. […] To quantify the images, a density-based spatial clustering application (DBSCAN) was utilized. […]

RhoB and CD277 [2] = test: Proximity ligation assay of RhoB and CD277 in EBV-LCL 48 cells; settings: ABP pretreated vs medium
RhoB and CD277 [3] = test: Flow cytometry FRET of RhoB-CD277 association in HEK 293 cells; settings: ABP treated vs untreated
Protocol: To study association of RhoB and BTN3 molecules, cells were permeabilized by using Permeabilization solution 2 (BD), then blocked with PBS containing 50% Human serum and labeled with rabbit polyclonal anti-RhoB antibody (AbCam). After washing with PBS, samples were labeled with Alexa594-conjugated Goat anti-Rabbit IgG (acceptor) (Jackson ImmunoResearch) and CD277-PE (donor) (BT3.1, Biollegend), respectively. The donor fluorescence was measured using a FACS Canto-II flow cytometer (BD) where donor fluorescence of the double-labeled samples was compared with that of samples labeled only with donor antibody. FRET efficiency was calculated from the fractional decrease of the donor fluorescence in the presence of the acceptor.

CD277 [4] = test: Flow cytometry FRET between BODIPY FL-stained membrane and anti-CD277 mAbs (CD277 conformational change), HEK 293 cells; settings: ABP vs unstimulated
Protocol: Conformational change of BTN3 molecule was determined similarly as described in ([…] et al., 2001). Cells were labeled with 5 ug/ml BODIPY-FL DPHE (donor) (Life Technologies) for 10 minutes on ice and then 10 minutes at 37 C, then washed extensively with ice-cold PBS. Cells were subsequently labeled with mouse anti-CD277 mAbs (either clone #20.1 or #103.2) and Alexa594-conjugated Goat anti-Mouse Fab fragments (Jackson ImmunoResearch). After washing, cells were resuspended in ice cold PBS and measured immediately using a FACS Canto-II flowcytometer (BD). FRET efficiency was calculated from the fractional decrease of the donor fluorescence in the presence of the acceptor.

NCCC(O)(P(=O)(O)O)P(=O)(O)O [pamidronate]
CD277 localization cluster size, density or number (CD277 [1]): did not dramatically change
proximity of RhoB and CD277 (PLA signal) (RhoB and CD277 [2]): in close proximity
close association between RhoB and CD277 (FRET efficiency) (RhoB and CD277 [3]): increased markedly
FRET between stained membrane and anti-CD277 antibodies (20.1, 103.2) (CD277 [4]): marked reduction in FRET signals
